# pIC50: −log10 of the molar value. “And” between values parts separate entries of the source, which are not always exact repeats. Identical values can stand only once.
# System: 313798-341-R-J2-PDC spheroids, viability
# Test: Anticancer human tumor 313798-341-R-J2-PDC patient-derived cervical squamous cell carcinoma cell line growth inhibition [PI3K]
# Settings: spheroids with HUVEC and MSC; for viability, T/C: stronger effect = lower value
# Procedure, shortened: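 Stroma-containing spheroids: tumor line, pooled-donor HUVEC, hMSC. Treatments: targeted agents with PI3K inhibitors. Dosing: clinically relevant, half-log spacing, 10 microM ceiling without known Cmax. Read-out: cell viability.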
# 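Note: spheroids exposed to compounds for seven days.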
# 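Throughout, for viability, T/C: 100% = DMSO vehicle control viability.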
structure (smiles),measurement,setting,value
CC(=O)c1c(C)c2cnc(Nc3ccc(N4CCNCC4)cn3)nc2n(C2CCCC2)c1=O,"viability, T/C",compound 0.000316 µM,105% (2×) and 108%
same,"viability, T/C",compound 0.001 µM,105% (2×) and 110%
same,"viability, T/C",compound 0.00316 µM,109% and 99.2% and 92.1%
same,"viability, T/C",compound 0.01 µM,101% and 103% and 118%
same,"viability, T/C",compound 0.0316 µM,101% (2×) and 97.3%
same,"viability, T/C",compound 0.1 µM,94.9% and 101% and 110%
same,pIC50,curve of compound,< 7.00
CC(Cn1ccc(-c2ccc(C#N)c(Cl)c2)n1)NC(=O)c1cc(C(C)O)[nH]n1 (stereo unspecified) + CC(Nc1ccc2c(c1)OCCn1cc(N3C(=O)OCC3C(F)F)nc1-2)C(N)=O,pIC50,"curve of first compound, second compound 0.00316 µM",< 5.00
same,pIC50,"curve of first compound, second compound 0.01 µM",< 5.00
same,pIC50,"curve of first compound, second compound 0.0316 µM",< 5.00
same,pIC50,"curve of first compound, second compound 0.1 µM",< 5.00
same,pIC50,"curve of first compound, second compound 0.316 µM",< 5.00
same,pIC50,"curve of first compound, second compound 1 µM",5.35
same,"viability, T/C","second compound 0.00316 µM, first compound 0.0316 µM",102%
same,"viability, T/C","second compound 0.00316 µM, first compound 0.1 µM",107%
same,"viability, T/C","second compound 0.00316 µM, first compound 0.316 µM",98.3%
same,"viability, T/C","second compound 0.00316 µM, first compound 1 µM",101%
same,"viability, T/C","second compound 0.00316 µM, first compound 3.16 µM",105%
same,"viability, T/C","second compound 0.00316 µM, first compound 10 µM",99.8%
same,"viability, T/C","second compound 0.01 µM, first compound 0.0316 µM",106%
same,"viability, T/C","second compound 0.01 µM, first compound 0.1 µM",103%
same,"viability, T/C","second compound 0.01 µM, first compound 0.316 µM",109%
same,"viability, T/C","second compound 0.01 µM, first compound 1 µM",103%
same,"viability, T/C","second compound 0.01 µM, first compound 3.16 µM",100%
same,"viability, T/C","second compound 0.01 µM, first compound 10 µM",89.1%
same,"viability, T/C","second compound 0.0316 µM, first compound 0.0316 µM",122%
same,"viability, T/C","second compound 0.0316 µM, first compound 0.1 µM",111%
same,"viability, T/C","second compound 0.0316 µM, first compound 0.316 µM",106%
same,"viability, T/C","second compound 0.0316 µM, first compound 1 µM",113%
same,"viability, T/C","second compound 0.0316 µM, first compound 3.16 µM",96.7%
same,"viability, T/C","second compound 0.0316 µM, first compound 10 µM",97.2%
same,"viability, T/C","second compound 0.1 µM, first compound 0.0316 µM",109%
same,"viability, T/C","second compound 0.1 µM, first compound 0.1 µM",107%
same,"viability, T/C","second compound 0.1 µM, first compound 0.316 µM",102%
same,"viability, T/C","second compound 0.1 µM, first compound 1 µM",117%
same,"viability, T/C","second compound 0.1 µM, first compound 3.16 µM",99.1%
same,"viability, T/C","second compound 0.1 µM, first compound 10 µM",82.3%
same,"viability, T/C","second compound 0.316 µM, first compound 0.0316 µM",86.7%
same,"viability, T/C","second compound 0.316 µM, first compound 0.1 µM",86.3%
same,"viability, T/C","second compound 0.316 µM, first compound 0.316 µM",78.8%
same,"viability, T/C","second compound 0.316 µM, first compound 1 µM",84.5%
same,"viability, T/C","second compound 0.316 µM, first compound 3.16 µM",79.9%
same,"viability, T/C","second compound 0.316 µM, first compound 10 µM",60.8%
same,"viability, T/C","second compound 1 µM, first compound 0.0316 µM",64.8%
same,"viability, T/C","second compound 1 µM, first compound 0.1 µM",55.5%
same,"viability, T/C","second compound 1 µM, first compound 0.316 µM",63.7%
same,"viability, T/C","second compound 1 µM, first compound 1 µM",58.6%
same,"viability, T/C","second compound 1 µM, first compound 3.16 µM",54.2%
same,"viability, T/C","second compound 1 µM, first compound 10 µM",40.5%
CC(C)n1nc(-c2ccc3oc(N)nc3c2)c2c(N)ncnc21,"viability, T/C",compound 0.000316 µM,99% [middle of 4 runs]
same,"viability, T/C",compound 0.001 µM,98.2% [middle of 4 runs]
same,"viability, T/C",compound 0.00316 µM,101% [middle of 4 runs]
same,"viability, T/C",compound 0.01 µM,86.7% [middle of 4 runs]
same,"viability, T/C",compound 0.0316 µM,77.7% [middle of 4 runs]
same,"viability, T/C",compound 0.1 µM,38.6% (2×) and 36.7% and 38.7%
same,IC50,curve of compound,71.3 nM [middle of 4 runs]
